“And” between values parts separate entries of the source, which are not always exact repeats. Identical values can stand only once. Like-named read-outs stand apart in the source and are kept apart here.
Assays:
[1] = tested on: 3hpdh; test: RT-PCR relative mRNA level of 3-HP catabolic gene
[2] = tested on: mmsadh; type: cell-based, microorganisms shown in Table 1
[3] = tested on: C4-LysR; test: GFP reporter inserted at C4-LysR position; type: cell-based, Pseudomonas denitrificans; conditions: w 3-HP 25 mM
From the text: (§1) The effect of the O1 and O2 operators on biosynthesis of the C4-LysR protein and the mmsadh expression was examined by using a green fluorescent protein (GFP) as a reporter (Table 2). In Table 2, the effect of the C4-LysR protein and the O1 and O2 operators on the expression of the C4-LysR and the mmsadh. The relative size of the GFP was shown relative to the wild type in the absence of 3-HP. the C4-LysR protein was either not present or was produced by a constitutive promoter, and a plasmid was prepared to control the expression of the GFP upon the existing promoter having the O1 and O2 operators. Then, the experiment was carried out by inserting the prepared plasmid into a host of P. denitrificans from which genes between the C4-LysR and the mmsadh was deleted. Accordingly, the expression of the GFP was suppressed by the C4-LysR protein itself. That is, when the C4-LysR is expressed, the GFP expression was reduced by more than 10-fold. In addition, the expression regulation was also constant regardless of the presence of 3-HP. In this regard, it was confirmed that the transcription of C4-LysR mRNA was negatively regulated by the C4-LysR protein. This experiment was repeated by using a promoter that randomized the O1 and O2 operators to eliminate the symmetrical dyad. As a result, in the case where the O1 or O2 operator site was randomized, the GFP expression was not regulated by the C4-LysR protein, referring that the C4-LysR protein in the P. denitrificans strain was negatively regulated by the strain itself.

[4] = tested on: C4-LysR protein and promoter DNA fragments; test: Electrophoretic mobility shift assay (EMSA) of C4-LysR protein with promoter DNA fragments; type: binding, Pseudomonas denitrificans; conditions: 25 mM 3-HP
[5] = tested on: 3hpdh, 3hibdhIV, and mmsadh; test: Inducer specificity of gene expression (FIGS. 4 and 5); type: cell-based, Pseudomonas denitrificans
[6] = tested on: mmsadh; test: GFP reporter inserted at mmsadh position; type: cell-based, Pseudomonas denitrificans; conditions: w 3-HP 25 mM
From the text: as §1
Meanwhile, the effect of the O1 and O2 operators on the mmsadh gene expression was examined in a similar manner. That is, the C4-LysR protein was constitutively expressed, and a plasmid was prepared so that GFP can be located after a promoter having O1 and O2 promoters. Here, an O1 or O2 operator was mutated so that the symmetrical dyad of an O1 or O2 site was randomized. As a result, when the O1 or O2 site was mutated, the phenomenon of up-regulation of transcription by 3-HP disappeared. That is, it means that the O1 and O2 operators are all essential sites for up-regulation of the expression by 3-HP.

[7] = tested on: mmsadh; test: RT-PCR relative mRNA level of 3-HP catabolic gene
[8] = cells exposed to 25 mmol/L 3-HP vs no 3-HP, M9 medium, rpoD reference gene

O=C(O)CCO [3-HP, 3-hydroxypropionic acid]
inducer of expression of 3hpdH ([1]; FIG. 5): acts as an inducer | fold increase of 3hpdh mRNA expression [1, 8]: 46 fold | 3hpdh expression on addition of 3-HP ([1]; strain with C3 LysR gene removed): not amplified | Relative mRNA level mmsadh + 3-HP [2]: 5.21 and 5.19 | Relative mRNA level mmsadh + 3-HP ([2]; Achromobacter denitrificans, + 3-HP): 6.34 | Relative mRNA level mmsadh + 3-HP ([2]; Acidovorax avenae subsp., + 3-HP): 5.98 | Relative mRNA level mmsadh + 3-HP ([2]; Acidovorax sp., + 3-HP): 6.04 | Relative mRNA level mmsadh + 3-HP ([2]; Acinetobacter baumannii, + 3-HP): 5.76 | Relative mRNA level mmsadh + 3-HP ([2]; Aeromonas hydrophilia, + 3-HP): 6.14 | Relative mRNA level mmsadh + 3-HP ([2]; Agrobacterium sp., + 3-HP): 6.56 | Relative mRNA level mmsadh + 3-HP ([2]; Alcaligenes faecalis, + 3-HP): 5.73 | Relative mRNA level mmsadh + 3-HP ([2]; Alcanivorax hongdengensis, + 3-HP): 6.58 | Relative mRNA level mmsadh + 3-HP ([2]; Alicychphilus denitrificans, + 3-HP): 6.01 | Relative mRNA level mmsadh + 3-HP ([2]; Alteromonas marina, + 3-HP): 5.73 | Relative mRNA level mmsadh + 3-HP ([2]; Amycolatopsis sp., + 3-HP): 6.05 | Relative mRNA level mmsadh + 3-HP ([2]; Anaeromyxobacter dehalogenans, + 3-HP): 5.44 | Relative mRNA level mmsadh + 3-HP ([2]; Azospirillum brasilensse, + 3-HP): 6.05 | Relative mRNA level mmsadh + 3-HP ([2]; Azotobacter vinelandii, + 3-HP): 5.87 | Relative mRNA level mmsadh + 3-HP ([2]; Beijerinckia indica, + 3-HP): 5.01 | Relative mRNA level mmsadh + 3-HP ([2]; Bordetella avium, + 3-HP): 4.98 | Relative mRNA level mmsadh + 3-HP ([2]; Bradyrhizobium japonicum, + 3-HP): 5.49 | Relative mRNA level mmsadh + 3-HP ([2]; Burkholderia ambifaria, + 3-HP): 5.13 | Relative mRNA level mmsadh + 3-HP ([2]; Castellaniella defragrans, + 3-HP): 5.98 | Relative mRNA level mmsadh + 3-HP ([2]; Catenulispora acidiphilia, + 3-HP): 5.24 | Relative mRNA level mmsadh + 3-HP ([2]; Caulobacter sp., + 3-HP): 5.96 | Relative mRNA level mmsadh + 3-HP ([2]; Chromobacterium violaceum, + 3-HP): 6.31 | Relative mRNA level mmsadh + 3-HP ([2]; Collimonas arenae, + 3-HP): 5.87 | Relative mRNA level mmsadh + 3-HP ([2]; Comamonas testosteroni, + 3-HP): 4.96 | Relative mRNA level mmsadh + 3-HP ([2]; Corynebacterium vitaeruminis, + 3-HP): 5.89 | Relative mRNA level mmsadh + 3-HP ([2]; Cupriavidus necator, + 3-HP): 6.05 | Relative mRNA level mmsadh + 3-HP ([2]; Curvibacter gracilus, + 3-HP): 3.99 | Relative mRNA level mmsadh + 3-HP ([2]; Delftia acidovorans, + 3-HP): 4.03 | Relative mRNA level mmsadh + 3-HP ([2]; Ferrimonas balearica, + 3-HP): 5.17 | Relative mRNA level mmsadh + 3-HP ([2]; Glaciecola nitratireducens, + 3-HP): 4.81 | Relative mRNA level mmsadh + 3-HP ([2]; Gordonia bronchialis, + 3-HP): 5.21 | Relative mRNA level mmsadh + 3-HP ([2]; Hahella chijuensis, + 3-HP): 5.97 | Relative mRNA level mmsadh + 3-HP ([2]; Halomonas elongata, + 3-HP): 4.34 | Relative mRNA level mmsadh + 3-HP ([2]; Hirschia litorea, + 3-HP): 4.56 | Relative mRNA level mmsadh + 3-HP ([2]; Idiomarina sp., + 3-HP): 5.43 | Relative mRNA level mmsadh + 3-HP ([2]; Janthinobacterium lividum, + 3-HP): 5.01 | Relative mRNA level mmsadh + 3-HP ([2]; Kitasatospora setae, + 3-HP): 5.25 | Relative mRNA level mmsadh + 3-HP ([2]; Kutzneria albida, + 3-HP): 5.61 | Relative mRNA level mmsadh + 3-HP ([2]; Methylobacterium sp., + 3-HP): 598 | Relative mRNA level mmsadh + 3-HP ([2]; Methylocystis sp., + 3-HP): 4.91 | Relative mRNA level mmsadh + 3-HP ([2]; Novosphingobium sp., + 3-HP): 6.04 | Relative mRNA level mmsadh + 3-HP ([2]; Oceanimonas smirnovii, + 3-HP): 4.88 | Relative mRNA level mmsadh + 3-HP ([2]; Paracoccus sp., + 3-HP): 4.96 | Relative mRNA level mmsadh + 3-HP ([2]; Parvibaculum lavamentivorans, + 3-HP): 4.99 | Relative mRNA level mmsadh + 3-HP ([2]; Phenylobacterium kunshanensis, + 3-HP): 5.02 | Relative mRNA level mmsadh + 3-HP ([2]; Photobacterium gaetbuleda, + 3-HP): 5.06 | Relative mRNA level mmsadh + 3-HP ([2]; Polynucleobacter necessarius asymbioticus, + 3-HP): 5.37 | Relative mRNA level mmsadh + 3-HP ([2]; Pseudoalteromonas carrgeenovora, + 3-HP): 5.03 | Relative mRNA level mmsadh + 3-HP ([2]; Pseudogulbenkiania sp., + 3-HP): 5.36 | Relative mRNA level mmsadh + 3-HP ([2]; Pseudomonas denitrificans ATCC13867, + 3-HP): 5.43 | Relative mRNA level mmsadh + 3-HP ([2]; Pseudomonas fluorescens, + 3-HP): 4.70 | Relative mRNA level mmsadh + 3-HP ([2]; Pseudomonas knackmussii, + 3-HP): 5.96 | Relative mRNA level mmsadh + 3-HP ([2]; Pseudomonas protegens, + 3-HP): 5.01 | Relative mRNA level mmsadh + 3-HP ([2]; Pseudoxanthomonas spadix, + 3-HP): 4.96 | Relative mRNA level mmsadh + 3-HP ([2]; Psychrobacter phenylpyruvicus, + 3-HP): 5.03 | Relative mRNA level mmsadh + 3-HP ([2]; Rhodomicrobium vannielli, + 3-HP): 6.02 | Relative mRNA level mmsadh + 3-HP ([2]; Segniliparus rotundus, + 3-HP): 4.32 | Relative mRNA level mmsadh + 3-HP ([2]; Shewanella oneidensis, + 3-HP): 4.07 | Relative mRNA level mmsadh + 3-HP ([2]; Simiduia agarovorans, + 3-HP): 4.87 | Relative mRNA level mmsadh + 3-HP ([2]; Sinorhizobium meliloti, + 3-HP): 4.07 | Relative mRNA level mmsadh + 3-HP ([2]; Sphingobium chlorophenolicum, + 3-HP): 4.86 | Relative mRNA level mmsadh + 3-HP ([2]; Sphingomonas wittichii, + 3-HP): 6.42 | Relative mRNA level mmsadh + 3-HP ([2]; Sphingopyxis alaskensis, + 3-HP): 6.94 | Relative mRNA level mmsadh + 3-HP ([2]; Stenotrophomonas maltophilia, + 3-HP): 5.21 | Relative mRNA level mmsadh + 3-HP ([2]; Streptomyces nodosus, + 3-HP): 5.14 | Relative mRNA level mmsadh + 3-HP ([2]; Tatlockia micdadei, + 3-HP): 5.65 | Relative mRNA level mmsadh + 3-HP ([2]; Thalassospira xiamenensis, + 3-HP): 6.10 | Relative mRNA level mmsadh + 3-HP ([2]; Variovorax paradoxus, + 3-HP): 4.97 | Relative mRNA level mmsadh + 3-HP ([2]; Verminephrobacter eiseniae, + 3-HP): 5.14 | Relative mRNA level mmsadh + 3-HP ([2]; Vibrio furnissii, + 3-HP): 4.91 | Relative mRNA level mmsadh + 3-HP ([2]; Xanthobacter autotrophicus, + 3-HP): 5.41 | Relative mRNA level mmsadh + 3-HP ([2]; Xanthomonas campestri, + 3-HP): 5.09 | increase of expression of mmsadh by 3-HP ([2]; in the microorganisms (Table 7), 25 mM 3-HP in nutrient medium): 16 fold | relative size of GFP (relative to wild type in the absence of 3-HP) ([3]; O1 & O2 mutation): 10 | relative size of GFP (relative to wild type in the absence of 3-HP) ([3]; O1 mutation): 10 | relative size of GFP (relative to wild type in the absence of 3-HP) ([3]; O2 mutation): 1 | relative size of GFP (relative to wild type in the absence of 3-HP) ([3]; wildtype): 1 | relative size of GFP (relative to wild type in the absence of 3-HP) ([3]; ΔC4-LysR): 10 | change of affinity of C4-LysR protein to DNA fragment in the presence of 3-HP ([4]; fragment F1): barely changed affinity | change of affinity of C4-LysR protein to DNA fragment in the presence of 3-HP ([4]; fragment F2): slightly decreased affinity | change of affinity of C4-LysR protein to DNA fragment in the presence of 3-HP ([4]; fragment F12 (O1 and O2 operators)): increased affinity | inducer of expression of mmsadh and 3hibdhIV ([5]; FIG. 4): acts as an inducer | amplification of the genes 3hpdh, 3hibdhIV and mmsadh by the compound ([5]; FIGS. 4 and 5): amplified | relative size of GFP (relative to wild type in the absence of 3-HP) ([6]; O1 & O2 mutation): 3 | relative size of GFP (relative to wild type in the absence of 3-HP) ([6]; O1 mutation): 3 | relative size of GFP (relative to wild type in the absence of 3-HP) ([6]; O2 mutation): 3 | relative size of GFP (relative to wild type in the absence of 3-HP) ([6]; wildtype): 55 | relative size of GFP (relative to wild type in the absence of 3-HP) ([6]; ΔC4-LysR): 3 | fold increase of mmsadh mRNA expression [7, 8]: 137 fold | mmsadh expression on addition of 3-HP ([7]; strain with C4 LysR gene removed): did not increase the expression

From patent US10961539B2, “Promoter system inducing expression by 3-hydroxypropionic acid and method for biological production of 3-hydroxypropionic acid using same” (NOROO IC Co., Ltd., priority 2015, dated 2021)
